According to ChEMBL document CHEMBL2157958, “4-Isoxazolyl-1,4-dihydropyridines exhibit binding at the multidrug-resistance transporter” (Bioorg Med Chem, 2012):

What was measured:
[1] = Binding affinity at VGCC
[2] = target: MDR1 (P-glycoprotein, ABCB1) (Homo sapiens, UniProt P08183); experiment: Inhibition of MDR1 in human Caco2 cells assessed as calcein accumulation after 30 mins by fluorescence assay; type: cell-based; parameters: concentration or dose not given beside the values; conditions: Caco-2 cells
[3] = Binding affinity at VGCC by patch clamp method

Chain of MDR1 (P-glycoprotein, ABCB1) (P08183 whole entry): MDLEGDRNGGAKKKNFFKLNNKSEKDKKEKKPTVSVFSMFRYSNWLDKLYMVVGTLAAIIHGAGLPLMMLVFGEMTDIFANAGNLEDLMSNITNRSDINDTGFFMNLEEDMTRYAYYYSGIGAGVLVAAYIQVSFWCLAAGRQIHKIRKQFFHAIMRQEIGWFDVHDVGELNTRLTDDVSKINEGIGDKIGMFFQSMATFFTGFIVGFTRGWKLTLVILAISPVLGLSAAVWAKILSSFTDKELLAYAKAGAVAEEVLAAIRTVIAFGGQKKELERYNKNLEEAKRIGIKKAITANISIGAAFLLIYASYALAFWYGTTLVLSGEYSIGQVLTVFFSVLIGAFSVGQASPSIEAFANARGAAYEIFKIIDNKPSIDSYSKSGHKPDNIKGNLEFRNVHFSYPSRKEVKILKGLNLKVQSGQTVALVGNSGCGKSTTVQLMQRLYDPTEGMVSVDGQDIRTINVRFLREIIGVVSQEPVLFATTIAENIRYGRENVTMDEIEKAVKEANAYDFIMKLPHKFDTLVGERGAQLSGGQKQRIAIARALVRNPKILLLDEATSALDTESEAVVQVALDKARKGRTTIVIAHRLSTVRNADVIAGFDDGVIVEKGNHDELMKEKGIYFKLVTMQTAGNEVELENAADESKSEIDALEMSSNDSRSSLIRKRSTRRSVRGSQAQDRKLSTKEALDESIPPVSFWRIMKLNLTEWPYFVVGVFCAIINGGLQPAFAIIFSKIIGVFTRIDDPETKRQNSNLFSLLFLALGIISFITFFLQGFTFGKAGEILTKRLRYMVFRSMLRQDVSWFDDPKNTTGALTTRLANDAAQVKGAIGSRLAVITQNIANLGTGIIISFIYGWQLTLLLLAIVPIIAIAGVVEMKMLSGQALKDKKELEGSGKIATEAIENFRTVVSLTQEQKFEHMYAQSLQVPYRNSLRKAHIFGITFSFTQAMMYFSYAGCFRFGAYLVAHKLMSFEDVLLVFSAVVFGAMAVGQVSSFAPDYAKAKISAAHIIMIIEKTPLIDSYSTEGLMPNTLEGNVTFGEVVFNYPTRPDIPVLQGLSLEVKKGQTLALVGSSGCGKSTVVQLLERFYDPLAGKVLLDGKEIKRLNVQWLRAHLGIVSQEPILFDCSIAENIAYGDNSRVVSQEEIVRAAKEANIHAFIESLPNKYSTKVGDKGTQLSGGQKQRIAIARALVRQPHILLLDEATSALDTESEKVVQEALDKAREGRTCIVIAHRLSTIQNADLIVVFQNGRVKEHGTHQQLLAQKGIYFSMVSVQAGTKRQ

Ki [1] [nM]	inhibition at 0.5 h [2] [%]	Activity [3] [µM]	Compound
8.69	18.6	–	CCOC(=O)C1=C(C)N=C(C)/C(=C(/O)OCC)C1c1c(C)noc1CCc1ccc(-c2ccccc2)cc1 (stereo unspecified)
–	61.2	–	CCOC(=O)C1=C(C)NC(C)=C(C(=O)OCC)C1c1c(C)noc1C(C)Cc1cccc(Br)c1 (racemic)
–	26.8	1.98	CCOC(=O)C1=C(C)N=C(C)/C(=C(/O)OCC)C1c1c(-c2cccc(Cl)c2)noc1C (stereo unspecified)
–	15	6.86	CCOC(=O)C1=C(C)N=C(C)/C(=C(/O)OCC)C1c1c(-c2cc(Cl)ccc2OC)noc1C (stereo unspecified)
–	38.4	–	CCOC(=O)C1=C(C)N=C(C)/C(=C(/O)OCC)C1c1c(-c2ccccc2)noc1C(C)C (stereo unspecified)
4.1	19	0.47	CCOC(=O)C1=C(C)N=C(C)/C(=C(/O)OCC)C1c1c(C)noc1CCc1cccc2ccccc12 (stereo unspecified)
–	32.8	17.1	CCOC(=O)C1=C(C)N=C(C)/C(=C(/O)OCC)C1c1c(-c2ccccc2OC)noc1C (stereo unspecified)
–	10.9	9.68	CCOC(=O)C1=C(C)N=C(C)/C(=C(/O)OCC)C1c1c(-c2ccccc2Cl)noc1C (stereo unspecified)
55.3	27.6	–	CCOC(=O)C1=C(C)N=C(C)/C(=C(/O)OCC)C1c1c(-c2ccccc2)noc1CCc1ccccc1 (stereo unspecified)
–	11.7	–	CCOC(=O)C1=C(C)N=C(C)/C(=C(/O)OCC)C1c1c(-c2ccc(Cl)cc2)noc1C (stereo unspecified)
–	38.3	–	CCOC(=O)C1=C(C)NC(C)=C(C(=O)OCC)C1c1c(C)noc1C(C)Cc1cccc2ccccc12 (stereo unspecified)
13.9	48.9	–	CCOC(=O)C1=C(C)N=C(C)/C(=C(/O)OCC)C1c1c(-c2ccccc2)noc1C (stereo unspecified)
